Reference: patent US10780090B2, “Heteroaryl compounds useful as inhibitors of SUMO activating enzyme” (Millennium Pharmaceuticals, Inc., priority 2014, dated 2020)

Target: recombinant human SAE enzyme (Homo sapiens (Human), UniProt Q9UBT2)
Test: SAE HTRF enzyme assay
Assay type: biochemical
Conditions: for Percent Inhibition: Concentration 0.111 μM; for IC50: class symbols A/B/C
In short: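 This HTRF format monitors Sumo-Flag–Ubc9-GST thioester formation catalysed by 0.11 nM human SAE with 0.5 μM ATP over 105 min at 24° C. Inhibition is expressed at a single concentration or as IC50.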

Chain of recombinant human SAE enzyme (Q9UBT2 whole entry): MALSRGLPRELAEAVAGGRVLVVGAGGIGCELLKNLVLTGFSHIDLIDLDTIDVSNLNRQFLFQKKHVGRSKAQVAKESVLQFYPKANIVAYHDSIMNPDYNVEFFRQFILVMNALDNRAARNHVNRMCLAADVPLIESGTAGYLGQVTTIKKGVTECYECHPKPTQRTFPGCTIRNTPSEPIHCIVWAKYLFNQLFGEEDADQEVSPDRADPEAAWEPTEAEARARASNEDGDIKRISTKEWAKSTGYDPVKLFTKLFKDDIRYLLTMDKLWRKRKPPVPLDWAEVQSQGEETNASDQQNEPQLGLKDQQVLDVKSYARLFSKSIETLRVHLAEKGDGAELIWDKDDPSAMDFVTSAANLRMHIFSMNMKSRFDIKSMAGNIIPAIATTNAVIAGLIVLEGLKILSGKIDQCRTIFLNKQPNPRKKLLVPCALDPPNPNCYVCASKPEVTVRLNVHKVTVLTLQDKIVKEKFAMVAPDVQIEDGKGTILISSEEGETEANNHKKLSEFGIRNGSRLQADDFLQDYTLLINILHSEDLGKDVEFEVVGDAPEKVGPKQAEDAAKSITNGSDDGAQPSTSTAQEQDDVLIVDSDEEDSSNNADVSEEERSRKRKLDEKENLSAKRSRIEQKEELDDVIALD
Chain of recombinant human SAE enzyme (Q9UBE0 whole entry partner): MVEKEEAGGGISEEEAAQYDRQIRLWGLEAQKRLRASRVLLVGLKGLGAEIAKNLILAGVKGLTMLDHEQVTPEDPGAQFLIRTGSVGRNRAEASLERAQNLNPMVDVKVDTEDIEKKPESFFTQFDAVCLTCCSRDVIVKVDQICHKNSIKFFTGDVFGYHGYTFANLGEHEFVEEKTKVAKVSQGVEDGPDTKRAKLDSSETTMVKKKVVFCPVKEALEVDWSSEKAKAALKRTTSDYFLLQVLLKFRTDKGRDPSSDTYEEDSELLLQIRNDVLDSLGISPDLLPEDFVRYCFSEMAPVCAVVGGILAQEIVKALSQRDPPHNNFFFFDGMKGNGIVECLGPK

N[C@H](c1cccc(Br)c1)c1cc(C(=O)c2cncnc2N[C@@H]2C[C@H](COS(N)(=O)=O)[C@@H](O)[C@H]2O)sc1Cl (single isomer, unassigned) [I-24b, [(1R,2R,3S,4R)-4-{[5-({4-[(R)-amino(3-bromophenyl)methyl]-5-chloro-2-thienyl}carbonyl)pyrimidin-4-yl]amino}-2,3-dihydroxycyclopentyl]methyl sulfamate or [(1R,2R,3S,4R)-4-{[5-({4-[(S)-amino(3-bromophenyl)methyl]-5-chloro-2-thienyl}carbonyl)pyrimidin-4-yl]amino}-2,3-dihydroxycyclopentyl]methyl sulfamate]
Percent Inhibition: 101

N[C@H](c1cccc(Cl)n1)c1cc(C(=O)c2cncnc2N[C@@H]2C[C@H](COS(N)(=O)=O)[C@@H](O)C2)sc1Cl (single isomer, unassigned) [I-25a, [(1R,2S,4R)-4-{[5-({4-[(S)-amino(6-chloropyridin-2-yl)methyl]-5-chloro-2-thienyl}carbonyl)pyrimidin-4-yl]amino}-2-hydroxycyclopentyl]methyl sulfamate or [(1R,2S,4R)-4-{[5-({4-[(R)-amino(6-chloropyridin-2-yl)methyl]-5-chloro-2-thienyl}carbonyl)pyrimidin-4-yl]amino}-2-hydroxycyclopentyl]methyl sulfamate]
Percent Inhibition: 97 | IC50: < 10 nM

N[C@H](c1cccc(Cl)n1)c1cc(C(=O)c2cncnc2N[C@@H]2C[C@H](COS(N)(=O)=O)[C@@H](O)C2)sc1Cl (single isomer, unassigned) [I-25b, [(1R,2S,4R)-4-{[5-({4-[(S)-amino(6-chloropyridin-2-yl)methyl]-5-chloro-2-thienyl}carbonyl)pyrimidin-4-yl]amino}-2-hydroxycyclopentyl]methyl sulfamate or [(1R,2S,4R)-4-{[5-({4-[(R)-amino(6-chloropyridin-2-yl)methyl]-5-chloro-2-thienyl}carbonyl)pyrimidin-4-yl]amino}-2-hydroxycyclopentyl]methyl sulfamate]
Percent Inhibition: 99 | IC50: < 10 nM

C[C@](N)(c1cccc(Br)c1)c1csc(C(=O)c2cncnc2N[C@@H]2C[C@H](COS(N)(=O)=O)[C@@H](O)[C@H]2O)c1 (single isomer, unassigned) [I-27a, [(1R,2R,3S,4R)-4-{[5-({4-[(1S)-1-amino-1-(3-bromophenyl)ethyl]-2-thienyl}carbonyl)pyrimidin-4-yl]amino}-2,3-dihydroxycyclopentyl]methyl sulfamate or [(1R,2R,3S,4R)-4-{[5-({4-[(1R)-1-amino-1-(3-bromophenyl)ethyl]-2-thienyl}carbonyl)pyrimidin-4-yl]amino}-2,3-dihydroxycyclopentyl]methyl sulfamate]
Percent Inhibition: 96 | IC50: < 10 nM

C[C@](N)(c1cccc(Br)c1)c1csc(C(=O)c2cncnc2N[C@@H]2C[C@H](COS(N)(=O)=O)[C@@H](O)[C@H]2O)c1 (single isomer, unassigned) [I-27b, [(1R,2R,3S,4R)-4-{[5-({4-[(1S)-1-amino-1-(3-bromophenyl)ethyl]-2-thienyl}carbonyl)pyrimidin-4-yl]amino}-2,3-dihydroxycyclopentyl]methyl sulfamate or [(1R,2R,3S,4R)-4-{[5-({4-[(1R)-1-amino-1-(3-bromophenyl)ethyl]-2-thienyl}carbonyl)pyrimidin-4-yl]amino}-2,3-dihydroxycyclopentyl]methyl sulfamate]
Percent Inhibition: 101 | IC50: < 10 nM

Cc1sc(C(=O)c2cncnc2N[C@@H]2C[C@H](COS(N)(=O)=O)[C@@H](O)C2)cc1[S@+]([O-])c1cccc(Cl)c1 (single isomer, unassigned) [I-28a, [(1R,2S,4R)-4-{[5-({4-[(R)-(3-chlorophenyl)sulfinyl]-5-methyl-2-thienyl}carbonyl)pyrimidin-4-yl]amino}-2-hydroxycyclopentyl]methyl sulfamate or [(1R,2S,4R)-4-{[5-({4-[(S)-(3-chlorophenyl)sulfinyl]-5-methyl-2-thienyl}carbonyl)pyrimidin-4-yl]amino}-2-hydroxycyclopentyl]methyl sulfamate]
Percent Inhibition: 66 | IC50: 10 to 100 nM

Cc1sc(C(=O)c2cncnc2N[C@@H]2C[C@H](COS(N)(=O)=O)[C@@H](O)C2)cc1[S@+]([O-])c1cccc(Cl)c1 (single isomer, unassigned) [I-28b, [(1R,2S,4R)-4-{[5-({4-[(R)-(3-chlorophenyl)sulfinyl]-5-methyl-2-thienyl}carbonyl)pyrimidin-4-yl]amino}-2-hydroxycyclopentyl]methyl sulfamate or [(1R,2S,4R)-4-{[5-({4-[(S)-(3-chlorophenyl)sulfinyl]-5-methyl-2-thienyl}carbonyl)pyrimidin-4-yl]amino}-2-hydroxycyclopentyl]methyl sulfamate]
Percent Inhibition: 100 | IC50: < 10 nM

NS(=O)(=O)OC[C@H]1C[C@@H](Nc2ncncc2C(=O)c2cc(C(O)c3cccc(Cl)n3)cs2)C[C@@H]1O (single isomer, unassigned) [I-29a, [(1R,2S,4R)-4-{[5-({4-[(S)-(6-chloropyridin-2-yl)(hydroxy)methyl]-2-thienyl}carbonyl)pyrimidin-4-yl]amino}-2-hydroxycyclopentyl]methyl sulfamate or [(1R,2S,4R)-4-{[5-({4-[(R)-(6-chloropyridin-2-yl)(hydroxy)methyl]-2-thienyl}carbonyl)pyrimidin-4-yl]amino}-2-hydroxycyclopentyl]methyl sulfamate]
Percent Inhibition: 97 | IC50: < 10 nM

NS(=O)(=O)OC[C@H]1C[C@@H](Nc2ncncc2C(=O)c2cc(C(O)c3cccc(Cl)n3)cs2)C[C@@H]1O (single isomer, unassigned) [I-29b, [(1R,2S,4R)-4-{[5-({4-[(S)-(6-chloropyridin-2-yl)(hydroxy)methyl]-2-thienyl}carbonyl)pyrimidin-4-yl]amino}-2-hydroxycyclopentyl]methyl sulfamate or [(1R,2S,4R)-4-{[5-({4-[(R)-(6-chloropyridin-2-yl)(hydroxy)methyl]-2-thienyl}carbonyl)pyrimidin-4-yl]amino}-2-hydroxycyclopentyl]methyl sulfamate]
Percent Inhibition: 99 | IC50: < 10 nM

C[C@](O)(c1cccc(Cl)c1)c1coc(C(=O)c2cncnc2N[C@@H]2C[C@H](COS(N)(=O)=O)[C@@H](O)C2)c1 (single isomer, unassigned) [I-30a, {(1R,2S,4R)-4-[(5-{4-[(1S)-1-(3-chlorophenyl)-1-hydroxyethyl]-2-furoyl}pyrimidin-4-yl)amino]-2-hydroxycyclopentyl}methyl sulfamate or {(1R,2S,4R)-4-[(5-{4-[(1R)-1-(3-chlorophenyl)-1-hydroxyethyl]-2-furoyl}pyrimidin-4-yl)amino]-2-hydroxycyclopentyl}methyl sulfamate]
Percent Inhibition: 100 | IC50: < 10 nM

C[C@](O)(c1cccc(Cl)c1)c1coc(C(=O)c2cncnc2N[C@@H]2C[C@H](COS(N)(=O)=O)[C@@H](O)C2)c1 (single isomer, unassigned) [I-30b, {(1R,2S,4R)-4-[(5-{4-[(1S)-1-(3-chlorophenyl)-1-hydroxyethyl]-2-furoyl}pyrimidin-4-yl)amino]-2-hydroxycyclopentyl}methyl sulfamate or {(1R,2S,4R)-4-[(5-{4-[(1R)-1-(3-chlorophenyl)-1-hydroxyethyl]-2-furoyl}pyrimidin-4-yl)amino]-2-hydroxycyclopentyl}methyl sulfamate]
Percent Inhibition: 88 | IC50: 10 to 100 nM

NS(=O)(=O)OC[C@H]1C[C@@H](Nc2ncncc2C(=O)c2cc([C@@]3(c4ccccc4)CCCO3)cs2)C[C@@H]1O (single isomer, unassigned) [I-32a, [(1R,2S,4R)-2-hydroxy-4-{[5-({4-[(2S)-2-phenyltetrahydrofuran-2-yl]-2-thienyl}carbonyl)pyrimidin-4-yl]amino}cyclopentyl]methyl sulfamate or [(1R,2S,4R)-2-hydroxy-4-{[5-({4-[(2R)-2-phenyltetrahydrofuran-2-yl]-2-thienyl}carbonyl)pyrimidin-4-yl]amino}cyclopentyl]methyl sulfamate]
Percent Inhibition: 98 | IC50: < 10 nM

NS(=O)(=O)OC[C@H]1C[C@@H](Nc2ncncc2C(=O)c2cc([C@@]3(c4ccccc4)CCCO3)cs2)C[C@@H]1O (single isomer, unassigned) [I-32b, [(1R,2S,4R)-2-hydroxy-4-{[5-({4-[(2S)-2-phenyltetrahydrofuran-2-yl]-2-thienyl}carbonyl)pyrimidin-4-yl]amino}cyclopentyl]methyl sulfamate or [(1R,2S,4R)-2-hydroxy-4-{[5-({4-[(2R)-2-phenyltetrahydrofuran-2-yl]-2-thienyl}carbonyl)pyrimidin-4-yl]amino}cyclopentyl]methyl sulfamate]
Percent Inhibition: 90 | IC50: 10 to 100 nM

N[C@H](c1cccc(Cl)c1)c1csc(C(=O)c2cncnc2N[C@@H]2C[C@H](COS(N)(=O)=O)[C@@H](O)C2)c1 (single isomer, unassigned) [I-36a, [(1R,2S,4R)-4-{[5-({4-[(R)-amino(3-chlorophenyl)methyl]-2-thienyl}carbonyl)pyrimidin-4-yl]amino}-2-hydroxycyclopentyl]methyl sulfamate or [(1R,2S,4R)-4-{[5-({4-[(S)-amino(3-chlorophenyl)methyl]-2-thienyl}carbonyl)pyrimidin-4-yl]amino}-2-hydroxycyclopentyl]methyl sulfamate]
Percent Inhibition: 100 | IC50: < 10 nM
